Measured values from patent US11339203B2, “Antitumor peptide and use thereof” (TOAGOSEI CO., LTD., priority 2018, dated 2022).
Where two headings read alike, the source gives them in different places. Where no end group is shown, it is not given here.

How the values were obtained:
Format in all cases: cell-based
Conditions in all cases: 48 h
[1] = tested on: human melanoma cell line (A2058)
Protocol: CAKI2 cells were cultured and adjusted to cell count of about 5×10^3 cells per single well of 96-well plate. The amount of medium at this time was made to be 100 μL per well. Next, the 96-well plate was arranged in a CO2 incubator and incubated for about 1 day (21 hours to 24 hours) under conditions of 37° C. and 5% CO2. […] Cell viability (%) was determined in the manner described below. […] Following completion of incubation, cell viability (%) was evaluated using a colorimetric method consisting of recovering the cell culture liquid containing the above-mentioned reagent together with measuring absorbance at wavelength of 450 nm based on reduction of tetrazolium salt (value corrected for absorbance at a wavelength of 650 nm: A450 to A650). More specifically, the cell viability (%) of each test cell line was calculated from the measured absorbance as a relative value based on cell viability of 100% for the measured value (measured absorbance) of the comparison test group that underwent incubation for 48 hours as described above in only medium not containing peptide. Antitumor activity was evaluated for Sample 2 in above-mentioned Test Example 1 targeted at multiple types of human-derived cultured tumor cells. […]

[2] = tested on: human non-small cell lung cancer cell line (NCI-H2444)
Protocol: (§1) CAKI2 cells were cultured and adjusted to cell count of about 5×10^3 cells per single well of 96-well plate. The amount of medium at this time was made to be 100 μL per well. Next, the 96-well plate was arranged in a CO2 incubator and incubated for about 1 day (21 hours to 24 hours) under conditions of 37° C. and 5% CO2. Subsequently, peptide-containing test media were respectively prepared for each concentration so that the concentration of each sample peptide targeted for evaluation was 12.5 μM and 25 μM followed by supplying to the wells in which the cells targeted for evaluation were cultured (namely, the wells following the above-mentioned incubation) so that the amount of media was 90 μL per well. The 96-well plate was then returned to CO2 incubator followed by incubating for 48 hours under conditions of 37° C. and 5% CO2. The number of wells (n) at each concentration in each peptide addition test group was set to 3. Thus, the values of the results indicated in the following table are the average values of the results respectively obtained for 3 test wells. Cell viability (%) was determined in the manner described below. Following completion of incubation for 48 hours as described above, the medium in each well was replaced with 100 μL of fresh medium not containing peptide followed by further adding a reagent for measuring cell proliferation in the form of “Cell Counting Kit-8” (Dojindo Laboratories) containing “water-soluble tetrazolium salt (WST-8)” as a coloring reagent at 10 μL per well. Subsequently, the 96-well plate was again returned to CO2 incubator and incubated for 1.5 hours to 2 hours under conditions of 37° C. and 5% CO2. Following completion of incubation, cell viability (%) was evaluated using a colorimetric method consisting of recovering the cell culture liquid containing the above-mentioned reagent together with measuring absorbance at wavelength of 450 nm based on reduction of tetrazolium salt (value corrected for absorbance at a wavelength of 650 nm: A450 to A650). More specifically, the cell viability (%) of each test cell line was calculated from the measured absorbance as a relative value based on cell viability of 100% for the measured value (measured absorbance) of the comparison test group that underwent incubation for 48 hours as described above in only medium not containing peptide. Antitumor activity was evaluated for Sample 2 in above-mentioned Test Example 1 targeted at multiple types of human-derived cultured tumor cells. […]

[3] = tested on: human alveolar epithelial cell carcinoma cell line (A549)
Protocol: as §1

FIGNLALSDLLAGVAYTANLLLKKRTLRKNDRKKR-NH2 [Sample 2]
Cell Viability (%) ([1]; 12.5 μM): 6.5%
Cell Viability (%) ([1]; 25 μM): 0.2%
Cell Viability (%) ([2]; 12.5 μM): 11%
Cell Viability (%) ([2]; 25 μM): 0.6%
Cell Viability (%) ([3]; 12.5 μM): 25.4%
Cell Viability (%) ([3]; 25 μM): 1.4%
